The subject of assay [1] is ISRE-firefly luciferase reporter in RAW264.7 cells. Nature of the assay: RAW264.7 ISRE-firefly luciferase reporter assay. It is filed as cell-based, mouse. The source says:
Data is depicted as fold increase ISRE activity vs matched vehicle, plotted against log[agonist] (M).
To characterize a small directed subset of molecules known to activate IRF3, mouse macrophage cells (RAW264.7) containing an ISRE-firefly luciferase reporter with a constitutively active renilla luciferase internal control for normalization (Promega) was utilized. IRF3 can activate ISRE through direct binding and via feed-forward mechanisms through potent induction of IFNβ. […] Specifically, RAW264.7 cells containing ISRE firefly luciferase reporter were treated with indicated compounds for 3 hours and luciferase activity was determined.

The subject of assay [2] is IRF3 activating pathway (TRIF, IPS1, STING) in THF cell lines. Put plainly: Interferon dependent luciferase reporter in telomerized human fibroblasts (THF) lacking adapter molecules. The format is cell-based. Particulars: WT THF, IPS1 KO, 23 μM compound or 313 ng/ml LPS. How it is done:
Shown is fold-change of an interferon dependent luciferase reporter expressed in various telomerized human fibroblasts (THF) cell lines lacking key adapter molecules in the IRF3 activating pathway (WT THF, IPS1 KO, STING KO, and TRIF KO) in response to different treatments (untreated, Sendai 1/100, 313 ng/ml LPS, 23 μM NA-42). Shown are group means+/−SEM.
Select chemical entities corresponding to the NA and ND chemofamilies were examined as to their TRIF-dependency of IRF3 induction. TRIF, or TIR-domain-containing adapter-inducing interferon-β, is an adapter in responding to activation of toll-like receptors (TLRs). For reference, FIG. 26A illustrates a cell-signalling pathway including TRIF, along with TLR4, TLR3, IPS1, STING and IRF3. […] The treatment with Sendai 1/100 serves as an IPS1-dependent control, and the treatment with 313 ng/ml LPS serves as a TRIF-dependent control. As shown at FIG. 26B, treatment with 313 ng/ml LPS induces robust IRF3 induction in WT THF, IPS1 KO, and STING KO, but not in the TRIF KO, showing that LPS induction is TRIF-dependent. […] Assessment of fold change IRF3 was determined via measurement of the interferon dependent luciferase reporter.
(In a reporter assay the amount or activity of a reporter protein is the signal.)

For assay [3], the system named is cytokines in mBMDMs (wild-type and IRF3 KO). Put plainly: Cytokine induction in mBMDMs (20-plex ProcartaPlex, Luminex). The format is cell-based, mouse. The note with it: for cytokine induction in mBMDMs (IL6, MCP3, Rantes, TNFa, MCP1, Mip1b, Mip1a, Gro-alpha) vs vehicle: wild-type and IRF3 KO mBMDMs. How it is done: Cytokine induction is shown for both wild-type mouse mBMDMs and IRF3 KO mouse mBMDMs. Cytokine expression was measured using a cytokine 20-plex mouse ProcartaPlex kit (Invitrogen, Carlsbad, Calif.) for labeling of multiple cytokines within an individual sample and run on a Luminex (Austin, Tex.) 200 instrument. Data is expressed as pg/ml. Shown are group means+/−SEM; […], **p<0.01, ***p<0.001, ****p<0.0001.
Cytokine induction is shown for both wild-type mouse mBMDMs and IRF3 KO mouse mBMDMs. Cytokine expression was measured using a cytokine 20-plex mouse ProcartaPlex kit (Invitrogen) for labeling of multiple cytokines within an individual sample and run on a Luminex 200 instrument. Data is expressed as pg/ml. Shown are group means+/−SEM; […], **p<0.01, ***p<0.001, ****p<0.0001.
Cytokine induction is shown for both wild-type mouse mBMDMs and IRF3 KO mouse mBMDMs. Cytokine expression measured using a cytokine 20-plex mouse ProcartaPlex kit (Invitrogen) for labeling of multiple cytokines within an individual sample and run on a Luminex 200 instrument. Data is expressed as pg/ml. Shown are group means+/−SEM; […], **p<0.01, ***p<0.001, ****p<0.0001.
Cytokine expression at each of FIGS. 22A-23B was monitored using a cytokine 20-plex mouse ProcartaPlex kit (Invitrogen, Carlsbad, Calif.) for labeling of multiple cytokines within an individual sample and run on a Luminex 200 instrument, and is expressed at FIGS. 22A-23B as pg/ml.

Assay [4] concerns plasma cytokines IL-6 and MCP1. Put plainly: Plasma cytokine induction in vivo in mice. On the set-up: species or system mouse. Particulars: WT C57/BL6 mice, 10 mg/kg, i.v. On the procedure: FIG. 27A is a bar graph illustrating the ability of NA-42 to induce plasma cytokine expression in vivo in mice. […] Expression is represented as pg/ml.
FIG. 27B is a bar graph illustrating the ability of ND-13 to induce plasma cytokine expression in vivo in mice. […] Expression is represented as pg/ml.
Plasma cytokine levels were evaluated using a cytokine 20-plex mouse ProcartaPlex kit (Invitrogen) for labeling of multiple cytokines within an individual sample and run on a Luminex 200 instrument.
Select chemical entities corresponding to the NA and ND chemofamilies were examined as to their ability to induce the expression of various cytokines in vivo. […] Shown at FIG. 27A is a representative example showing NA-42 induction of IL-6 (top panel) and MCP1 (bottom panel).

For assay [5], the system named is Chikungunya Virus (CHIKV). Put plainly: Adjuvant effect on anti-CHIKV total IgG titers (CHIKV VLP prime/boost). The note with it: C57BL/6 mice, IM prime and boost, 3 weeks post-boost. The format is in vivo, mouse. On the procedure: Conditions shown include virus-like particle (VLP) alone, VLP+5 mg/kg ND13, VLP+10 mg/kg ND13, VLP+5 mg/kg NA-42, and VLP+10 mg/kg NA-42. Depicted is Log 10 antibody titer representing anti-CHIKV Total IgG. Individual samples are depicted as filled circles for each condition. Bar graphs represent average geometric mean titers for each treatment cohort+standard deviation.
Select chemical entities corresponding to the NA and ND chemofamilies were examined as to their ability to act as adjuvants to enhance vaccine platforms. FIG. 28 depicts a representative example showing how NA-42 and ND-13 can enhance antibody titers to a Chikungunya Virus (CHIKV) challenge. C57BL/6 mice were primed and boosted IM with 10^6 PFU equivalents of CHIKVLP alone or in the presence of ND13 or NA42; 3 weeks post-boost mice were euthanized and total IgG reactive with CHIKV was measured by ELISA in duplicate. Data presented are average geometric mean titers for each treatment cohort including each animal. Specifically, FIG. 28 depicts various conditions (virus-like particle (VLP), VLP+5 mg/kg ND13, VLP+10 mg/kg ND13, VLP+5 mg/kg NA-42, and VLP+10 mg/kg NA-42) plotted against Log 10 antibody titer representing Anti-CHIKV Total IgG.

Data on 3 molecules can be found in patent US20220395500A1, “SMALL MOLECULE ACTIVATORS OF INTERFERON REGULATORY FACTOR 3 AND METHODS OF USE THEREOF” (Neuralexo, Inc., priority 2020, published 2022).

A word on the EC50: it is the concentration at which the effect is half-maximal. Regarding `Cc1ccc2c(=O)c3cccc(CC(=O)O)c3oc2c1C` [DMXAA, 5,6-dimethylxanthenone-4-acetic acid], the concentration for a half-maximal effect (EC50) in assay [1] (Mus musculus, RAW264.7, expanded dose-response study, read-out: EC50 for activating mouse ISRE) is around 16 µM. For the same molecule, the “ISRE activation” value in assay [1] (RAW264.7, 3 hours post-treatment, 96-well) is “most potent activators”.
Consider `CCOc1cccc(COc2ccc(C(=O)Nc3ccc(N4CCN(C(=O)c5cccs5)CC4)cc3)cc2)c1` [NA-42, 4-((3-ethoxybenzyl)oxy)-N-(4-(4-(thiophene-2-carbonyl)piperazin-1-yl)phenyl)benzamide], for which the “TRIF-dependency of IRF3 induction” value in assay [2] is listed as “TRIF dependent”. In addition, in assay [3], the “off-target inflammatory activity in mBMDMs” value is on record as “minimal off-target inflammatory activity” and the “cytokine induction in mBMDMs (IL6, MCP3, Rantes, TNFa, MCP1, Mip1b, Mip1a, Gro-alpha) vs vehicle” value is reported as “IRF3 dependent cytokine induction”. Also, the “plasma IL-6 and MCP1 expression in vivo” value in assay [4] is “robust expression”. The “antibody titers to CHIKV (Anti-CHIKV Total IgG) compared to VLP alone” value (from here on “antibody titers to CHIKV … compared to VLP alone”) in assay [5] (VLP + 5 mg/kg) is “robustly enhances”. For the same molecule, the “antibody titers to CHIKV … compared to VLP alone” value in assay [5] (VLP + 10 mg/kg) is listed as “robustly enhances”.
Turning to `COc1ccc(C(=O)Nc2cc(-c3nc4cc(C)c(C)cc4o3)ccc2C)cc1[N+](=O)[O-]` [ND-13, N-(5-(5,6-dimethylbenzo[d]oxazol-2-yl)-2-methylphenyl)-4-methoxy-3-nitrobenzamide], the “TRIF-dependency of IRF3 induction” value in assay [2] is given as “TRIF-dependent”. In assay [3], the “off-target inflammatory activity in mBMDMs” value is reported as “minimal off-target inflammatory activity” and the “cytokine induction in mBMDMs (IL6, MCP3, Rantes, TNFa, MCP1, Mip1b, Mip1a, Gro-alpha) vs vehicle” value is “IRF3 dependent cytokine induction”. For the same molecule, the “plasma IL-6 and MCP1 expression in vivo” value in assay [4] is “robust”. Moreover, the “antibody titers to CHIKV … compared to VLP alone” value in assay [5] (VLP + 10 mg/kg) is recorded as “robustly enhances”.
